Experimental data taken from publication doi:10.1101/706168v1 (biorxiv, 2019).

Target: TASK-1 (K2P3.1), wild type (Homo sapiens, UniProt O14649)
Test: two-electrode voltage clamp, Xenopus oocytes
Assay type: cell-based

TASK-1 (K2P3.1), wild type, sequence (O14649 whole entry): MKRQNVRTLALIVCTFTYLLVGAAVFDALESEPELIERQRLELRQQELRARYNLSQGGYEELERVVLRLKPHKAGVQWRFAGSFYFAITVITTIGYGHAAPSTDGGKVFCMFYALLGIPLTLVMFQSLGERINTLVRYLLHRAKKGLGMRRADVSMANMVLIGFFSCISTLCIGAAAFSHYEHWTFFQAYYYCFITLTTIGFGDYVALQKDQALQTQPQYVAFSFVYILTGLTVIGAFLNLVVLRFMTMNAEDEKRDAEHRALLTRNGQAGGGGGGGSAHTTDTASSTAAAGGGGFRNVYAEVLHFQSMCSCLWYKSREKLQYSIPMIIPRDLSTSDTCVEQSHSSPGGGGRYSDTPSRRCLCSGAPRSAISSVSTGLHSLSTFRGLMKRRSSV

EC50: 7.6 nM
SMILES: O=C(c1cccc(OC(F)(F)F)n1)N1CCN(Cc2c(-c3ccc(Cl)cc3)nc3ccccn23)CC1 [BAY 2341237, (4-{[2-(4-chlorophenyl)imidazo[1,2-a]pyridin-3-yl]methyl}piperazin-1-yl)[6-(trifluoromethoxy)pyridin-2-yl]methanone]
